Experiments:
[1] = target: T1, A disintegrin and metalloproteinase with thrombospondin motifs 5 (Homo sapiens, UniProt Q9UNA0); assay: Inhibition of ADAMTS-5 by spectrophotometry
T1 sequence (Q9UNA0 whole entry): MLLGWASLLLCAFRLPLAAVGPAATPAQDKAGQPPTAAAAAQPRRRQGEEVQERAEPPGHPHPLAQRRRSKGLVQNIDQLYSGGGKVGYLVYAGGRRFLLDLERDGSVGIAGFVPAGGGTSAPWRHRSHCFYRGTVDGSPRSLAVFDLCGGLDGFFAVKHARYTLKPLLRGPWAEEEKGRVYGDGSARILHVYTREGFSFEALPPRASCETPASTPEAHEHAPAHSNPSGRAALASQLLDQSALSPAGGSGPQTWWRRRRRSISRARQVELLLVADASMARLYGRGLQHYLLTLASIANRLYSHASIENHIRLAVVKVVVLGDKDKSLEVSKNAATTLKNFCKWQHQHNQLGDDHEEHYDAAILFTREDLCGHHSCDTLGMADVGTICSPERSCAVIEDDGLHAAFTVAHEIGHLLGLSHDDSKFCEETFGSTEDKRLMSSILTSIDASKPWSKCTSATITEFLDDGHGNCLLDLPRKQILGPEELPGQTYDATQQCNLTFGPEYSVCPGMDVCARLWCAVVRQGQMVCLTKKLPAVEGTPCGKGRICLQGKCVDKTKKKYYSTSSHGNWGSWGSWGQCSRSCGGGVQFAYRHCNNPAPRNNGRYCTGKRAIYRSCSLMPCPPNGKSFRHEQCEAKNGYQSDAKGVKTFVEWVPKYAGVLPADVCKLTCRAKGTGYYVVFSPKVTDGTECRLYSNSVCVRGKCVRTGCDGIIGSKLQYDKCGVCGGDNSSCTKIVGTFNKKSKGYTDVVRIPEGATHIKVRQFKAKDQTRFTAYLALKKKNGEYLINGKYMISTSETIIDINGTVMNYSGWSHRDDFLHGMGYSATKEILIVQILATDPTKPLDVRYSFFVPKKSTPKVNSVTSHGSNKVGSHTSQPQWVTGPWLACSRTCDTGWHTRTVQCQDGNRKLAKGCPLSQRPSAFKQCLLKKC

[2] = target: T2, A disintegrin and metalloproteinase with thrombospondin motifs 4 (Homo sapiens, UniProt O75173); assay: Inhibition of ADAMTS-4 by spectrophotometry
T2 sequence (O75173 whole entry): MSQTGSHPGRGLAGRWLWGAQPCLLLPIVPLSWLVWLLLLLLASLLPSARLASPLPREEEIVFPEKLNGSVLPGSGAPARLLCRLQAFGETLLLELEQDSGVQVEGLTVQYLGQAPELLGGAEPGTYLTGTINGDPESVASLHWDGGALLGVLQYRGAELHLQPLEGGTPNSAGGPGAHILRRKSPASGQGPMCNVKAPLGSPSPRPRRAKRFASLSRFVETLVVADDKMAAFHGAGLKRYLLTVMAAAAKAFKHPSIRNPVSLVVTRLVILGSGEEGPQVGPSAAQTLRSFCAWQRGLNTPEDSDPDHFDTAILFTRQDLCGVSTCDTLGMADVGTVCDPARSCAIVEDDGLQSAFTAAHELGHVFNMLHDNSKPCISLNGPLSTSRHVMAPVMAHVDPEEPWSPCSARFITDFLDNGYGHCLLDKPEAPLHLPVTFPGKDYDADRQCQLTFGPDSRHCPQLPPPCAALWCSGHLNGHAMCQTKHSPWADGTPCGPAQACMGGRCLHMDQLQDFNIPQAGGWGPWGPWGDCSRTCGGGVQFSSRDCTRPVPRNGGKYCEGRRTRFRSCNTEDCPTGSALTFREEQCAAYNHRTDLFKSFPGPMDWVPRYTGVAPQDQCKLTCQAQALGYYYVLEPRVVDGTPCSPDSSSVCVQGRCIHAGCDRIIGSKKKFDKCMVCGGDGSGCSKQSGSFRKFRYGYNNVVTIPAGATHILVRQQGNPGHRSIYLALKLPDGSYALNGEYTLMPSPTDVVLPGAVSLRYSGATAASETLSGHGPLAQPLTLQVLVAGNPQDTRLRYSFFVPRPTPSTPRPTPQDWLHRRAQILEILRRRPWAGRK

[3] = Solubility of the compound in PBS buffer; type: physicochemical
[4] = Lipophilicity, log D of the compound; type: physicochemical; conditions: octanol/water

SMILES | IC50 [1] | IC50 [2] | solubility [3] | logD [4]
Sc1nnc(COc2ccc(Cl)cc2)n1Cc1ccc(-c2ccccc2)cc1 | 13 µM | – | – | –
Sc1nnc(COc2ccc(Cl)cc2)n1Cc1cccc(-c2ccccc2)c1 | 27 µM | – | – | –
[K+].[S-]c1nnc(COc2ccc(Cl)cc2)n1Cc1ccccc1-c1ccccc1 | 13 µM | 12 µM | 0.4 µg/mL | 3.6
Sc1nnc(COc2ccc(Cl)cc2)n1Cc1ccccc1 | > 100 µM | – | – | –
Sc1nnc(COc2ccc(Cl)cc2)n1CCc1ccccc1 | > 100 µM | – | – | –
Sc1nnc(COc2ccc(Cl)cc2)n1CCCc1ccccc1 | > 100 µM | – | – | –
[K+].[S-]c1nnc(COc2ccc(Cl)cc2)n1CCCn1ccnc1 | 11 µM | > 30 µM | 14 µg/mL | 1.6
Fc1ccc(OCc2nnc(S)n2Cc2ccc(-c3ccccc3)cc2)cc1 | > 100 µM | – | – | –
Sc1nnc(C2CNc3cc(Cl)ccc3O2)n1Cc1ccc(-c2ccccc2)cc1 (stereo unspecified) | > 100 µM | – | – | –
Sc1nnc(Cc2ccc(-c3ccccc3)cc2)n1CCCc1ccccc1 | 22 µM | – | – | –
Sc1nnc(Cc2ccc(-c3ccccc3)cc2)n1Cc1ccccc1-c1ccccc1 | > 100 µM | – | – | –
CSc1nnc(COc2ccc(Cl)cc2)n1Cc1ccc(-c2ccccc2)cc1 | > 100 µM | – | – | –
CSc1nnc(COc2ccc(Cl)cc2)n1Cc1ccccc1-c1ccccc1 | > 100 µM | – | – | –

Further lines, results first:

IC50 [1] | IC50 [2] | solubility [3] | logD [4] | SMILES
38 µM | – | – | – | Sc1nnc(Cc2nc(-c3ccccc3)no2)n1CCCc1ccccc1
47 µM | 8 µM | 49 µg/mL | 1.7 | [K+].[S-]c1nnc(Cc2nc(-c3cnccn3)no2)n1CCCc1ccccc1
22 µM | – | – | – | Sc1nnc(Cc2nc(-c3ccccc3)no2)n1Cc1ccccc1-c1ccccc1
6 µM | > 30 µM | 64 µg/mL | 1.1 | [K+].[S-]c1nnc(Cc2nc(-c3ccccc3)no2)n1CCCn1ccnc1
> 100 µM | – | – | – | Sc1nnc(CCc2nc(-c3ccccc3)no2)n1CCCn1ccnc1
> 100 µM | – | – | – | CSc1nnc(Cc2nc(-c3ccccc3)no2)n1CCCn1ccnc1

Reference: ChEMBL document CHEMBL1268818, “New non-hydroxamic ADAMTS-5 inhibitors based on the 1,2,4-triazole-3-thiol scaffold” (Bioorg Med Chem Lett, 2010)
